Assay results from article PMC10178204, “Peptaibol Analogs Show Potent Antibacterial Activity against Multidrug Resistant Opportunistic Pathogens” (International Journal of Molecular Sciences, 2023).
Converted amounts (≈) assume the structure as drawn. “And” between values parts separate entries of the source, which are not always exact repeats. Identical values can stand only once. Non-standard residues stand in square brackets, D forms with d. Residues, ends and D or L forms follow the SMILES beside them. *: point of attachment. Leu(ol) = CC(C)C[C@H](N)CO; Octanoyl = CCCCCCCC(=O)*; Aib = CC(C)(N)C(=O)O

Columns and labels:
[1] = tested on: Acinetobacter baumannii ATCC 17978; details: for MIC against A. baumannii, in molar units: corresponding to 2 and 8 μg/mL
Text: (§1) The antibacterial activity of the peptides was initially assessed on a panel of representative Gram-positive and Gram-negative organisms of high clinical relevance and commonly responsible for bacterial infections in both animals and humans. Bacillus subtilis ATCC 6633 (Bsu) was also included as a rod-shaped model Gram-positive organism. This first panel comprised: Enterococcus faecalis ATCC 29212 (Efa); Streptococcus pyogenes ATCC 12344 (Spy); and Staphylococcus aureus ATCC 25923 (Sau); Gram-negative: Escherichia coli CCUGT (Eco), Klebsiella pneumoniae ATCC 13833 (Kpn), Acinetobacter baumannii ATCC 17978 (Aba), and Pseudomonas aeruginosa ATCC 27853 (Pae) (Table 2). Both the minimum inhibitory concentration (MIC, Table 2) and the minimum bactericidal concentration (MBC, Table S1, Supporting Material) were determined.
(§2) The minimum inhibitory concentration (MIC) and the minimum bactericidal concentration (MBC) of the compounds were determined in triplicate using Mueller–Hinton broth (MHB). […] Therefore, we decided to dissolve all peptides in DMSO to a final concentration of 25 mg/mL, for consistency. The bacteria inoculum was 5 × 10^5 CFU/mL, as recommended by CLSI (Document M07-A10, 2015). […] Reference-type strains, including representatives of both Gram-positive bacteria (Bacillus subtilis ATCC 6633, Enterococcus faecalis ATCC 29212, Staphylococcus aureus ATCC 25923, the methicillin-resistant Staphylococcus aureus ATCC 43300 (MRSA), Streptococcus pyogenes ATCC 12344) and Gram-negative bacteria (Escherichia coli CCUGT, Klebsiella pneumoniae ATCC 13833, Pseudomonas aeruginosa ATCC 27853, and Acinetobacter baumannii ATCC 17978), were acquired from ATCC or CCUG culture collections. Other antibiotic-resistant clinical isolates were present in our collection at the University Teaching Hospital (Azienda Ospedaliero-Universitaria Senese ‘Santa Maria alle Scotte’) in Siena, Tuscany, Italy. Specifically, MDR carbapenem-hydrolyzing class D β-lactamase-producing Acinetobacter baumannii and metallo-β-lactamase-producing Pseudomonas aeruginosa were used in this study (Table 4).

[2] = tested on: Bacillus subtilis ATCC 6633; details: MHB, 5 × 10^5 CFU/mL, 18 h, 35 °C, triplicate
Text: as §1, §2

[3] = tested on: Enterococcus faecalis ATCC 29212; details: MHB, 5 × 10^5 CFU/mL, 18 h, 35 °C, triplicate
Text: as §1, §2

[4] = tested on: Escherichia coli CCUGT; details: MHB, 5 × 10^5 CFU/mL, 18 h, 35 °C, triplicate
Text: as §1, §2

[5] = tested on: Klebsiella pneumoniae ATCC 13833; details: MHB, 5 × 10^5 CFU/mL, 18 h, 35 °C, triplicate
Text: as §1, §2

[6] = tested on: Pseudomonas aeruginosa ATCC 27853; details: MHB, 5 × 10^5 CFU/mL, 18 h, 35 °C, triplicate
Text: as §1, §2

[7] = tested on: Staphylococcus aureus ATCC 25923; details: MHB, 5 × 10^5 CFU/mL, 18 h, 35 °C, triplicate
Text: as §1, §2

[8] = tested on: Streptococcus pyogenes ATCC 12344; details: MHB, 5 × 10^5 CFU/mL, 18 h, 35 °C, triplicate
Text: as §1, §2

[9] = tested on: A. baumannii SI-12 (OXA-23); details: MHB, 5 × 10^5 CFU/mL, 18 h, 35 °C, triplicate
Experimental: as §2

[10] = tested on: A. baumannii SI-310 (OXA-24); details: colistin-resistant isolate; MHB, 5 × 10^5 CFU/mL, 18 h, 35 °C, triplicate
Experimental: as §2

[11] = tested on: A. baumannii SI-648 (OXA-23, OXA-51-like); details: MHB, 5 × 10^5 CFU/mL, 18 h, 35 °C, triplicate
Experimental: as §2

[12] = tested on: P. aeruginosa 101/1477 (IMP-1); details: MHB, 5 × 10^5 CFU/mL, 18 h, 35 °C, triplicate
Experimental: as §2

[13] = tested on: P. aeruginosa 506/99 (VIM-2); details: MHB, 5 × 10^5 CFU/mL, 18 h, 35 °C, triplicate
Experimental: as §2

[14] = tested on: P. aeruginosa VA-182/00 (VIM-2); details: MHB, 5 × 10^5 CFU/mL, 18 h, 35 °C, triplicate
Experimental: as §2

[15] = tested on: P. aeruginosa VR-143/97 (VIM-1); details: MHB, 5 × 10^5 CFU/mL, 18 h, 35 °C, triplicate
Experimental: as §2

[16] = tested on: S. aureus ATCC 43300 (MRSA); details: MHB, 5 × 10^5 CFU/mL, 18 h, 35 °C, triplicate
Experimental: as §2

[17] = tested on: blood agar plate (Columbia CNA Agar); assay: Hemolysis on blood agar plate; details: 35 ± 2 °C, 24 h; for Hemolysis (class): 50 μg peptide (2 μL of 25 mg/mL in DMSO) spotted on blood agar, visual, triplicate; for Hemolysis (d, diameter of hemolysis zone): 50 μg spotted on blood agar, average of triplicate
Experimental: Hemolysis zones were visually determined and measured. […] For two additional peptides (6 and 15), only a small hemolysis zone (diameter 4–5 mm) was visible, as compared to that of the positive control (Triton X-100, 13 mm).
Briefly, 2 μL of each peptide solution in DMSO (25 mg/mL), corresponding to 50 μg, was spotted on the surface of a blood agar plate (Columbia CNA Agar, Becton Dickinson Italia S.p.A., Florence, Italy). The plate was then incubated at 35 ± 2 °C for 24 h and visually inspected for the presence of hemolysis zones (see Figure S13, Supplementary Material). The experiment was performed in triplicate. Table 2 reports the average value of the diameter of hemolysis zones measured in each individual experiment. Triton X-100 was used as a positive control (diameter of the hemolysis zone: 13 mm), while DMSO was used as a negative control.
Figure S13. Implementation of the hemolysis test as described in Bechlars et al.. After spotting
2 µL (50 µg) of each compound at a random location on the blood agar plate and incubation at 35 ±
2 °C for 24 h, the plates were manually inspected for the presence of hemolysis zones. Triton X-100
and DMSO were used as the positive and negative controls, respectively. Results were interpreted
(1 picture or pasted object on this page, not shown here)

[18] = MHB, 5 × 10^5 CFU/mL, 18 h, 35 °C, triplicate

Row | Structure (SMILES) | MBC Aba [1, 18] [µg/mL] | MBC Bsu [2] [µg/mL] | MIC Bsu [2] [µg/mL] | MBC Efa [3] [µg/mL] | MIC Efa [3] [µg/mL] | MIC Eco [4] [µg/mL] | MIC Kpn [5] [µg/mL] | MBC Sau [7] [µg/mL] | MIC Sau [7] [µg/mL] | MBC Spy [8] [µg/mL] | MIC Spy [8] [µg/mL] | MBC A. baumannii SI-12 (OXA-23) [9] [µg/mL] | MIC A. baumannii SI-12 (OXA-23) [9] | MBC A. baumannii SI-310 (OXA-24) [10] [µg/mL] | MIC A. baumannii SI-310 (OXA-24) [10] | MBC A. baumannii SI-648 (OXA-23, OXA-51-like) [11] [µg/mL] | MIC A. baumannii SI-648 (OXA-23, OXA-51-like) [11] | MIC P. aeruginosa 101/1477 (IMP-1) [12] [µg/mL] | MIC P. aeruginosa 506/99 (VIM-2) [13] [µg/mL] | MIC P. aeruginosa VA-182/00 (VIM-2) [14] [µg/mL] | also measured
1 | CCCCCCCC(=O)NC(C)(C)C(=O)N[C@@H](CCCCN)C(=O)N[C@@H](CC(C)C)C(=O)NC(C)(C)C(=O)NCC(=O)NCC(=O)N[C@@H](CC(C)C)C(=O)NC(C)(C)C(=O)NCC(=O)N[C@H](C(=O)N[C@@H](CC(C)C)C(N)=O)[C@@H](C)CC [Peptide 2, 1-Oct-Aib-Lys-Leu-Aib-Gly-Gly-Leu-Aib-Gly-Ile-Leu-NH2] (Octanoyl-[Aib]KL[Aib]GGL[Aib]GIL-NH2) | 16 (≈ 13.9 µM) | 16 (≈ 13.9 µM) | 4 (≈ 3.48 µM) | 8 (≈ 6.95 µM) | 4 (≈ 3.48 µM) | > 128 | 64 (≈ 55.6 µM) | 8 (≈ 6.95 µM) | 8 (≈ 6.95 µM) | 4 (≈ 3.48 µM) | 4 (≈ 3.48 µM) | 32 (≈ 27.8 µM) | 32 μg/mL and 32/32 μg/mL | 32 (≈ 27.8 µM) | 32 μg/mL and 32/32 μg/mL | 32 (≈ 27.8 µM) | 16 µg/mL (≈ 13.9 µM) | > 128 | > 128 | > 128 | MIC Aba [1, 18]: 16 µg/mL (≈ 13.9 µM); MBC Kpn [5]: > 128 µg/mL; MIC Pae [6]: > 128 µg/mL; MIC P. aeruginosa VR-143/97 (VIM-1) [15]: > 128 µg/mL; MBC S. aureus ATCC 43300 (MRSA) [16]: 4 µg/mL (≈ 3.48 µM); MIC S. aureus ATCC 43300 (MRSA) [16]: 2 µg/mL (≈ 1.74 µM); Hemolysis (class) [17]: +; Hemolysis (d, diameter of hemolysis zone) [17]: 8 mm
2 | CCCCCCCC(=O)NC(C)(C)C(=O)NCC(=O)N[C@@H](CC(C)C)C(=O)NC(C)(C)C(=O)NCC(=O)NCC(=O)N[C@@H](CC(C)C)C(=O)NC(C)(C)C(=O)N[C@@H](CCCCN)C(=O)N[C@H](C(=O)N[C@H](CO)CC(C)C)[C@@H](C)CC [Peptide 9, 1-Oct-Aib-Gly-Leu-Aib-Gly-Gly-Leu-Aib-Lys-Ile-Lol] (Octanoyl-[Aib]GL[Aib]GGL[Aib]KI[Leu(ol)]) | 8 (≈ 7.03 µM) | 16 (≈ 14.1 µM) | 4 (≈ 3.52 µM) | 4 (≈ 3.52 µM) | 4 (≈ 3.52 µM) | > 128 | > 128 | 16 (≈ 14.1 µM) | 16 (≈ 14.1 µM) | 32 (≈ 28.1 µM) | 16 (≈ 14.1 µM) | 32 (≈ 28.1 µM) | 32 μg/mL and 32/32 μg/mL | 32 (≈ 28.1 µM) | 32 μg/mL and 32/32 μg/mL | 32 (≈ 28.1 µM) | 32 μg/mL and 32/32 μg/mL | > 128 | > 128 | > 128 | MIC against A. baumannii, in molar units [1]: 1.8 to 7.2 µM; MIC Pae [6]: > 128 µg/mL; MIC P. aeruginosa VR-143/97 (VIM-1) [15]: > 128 µg/mL; MBC S. aureus ATCC 43300 (MRSA) [16]: 8 µg/mL (≈ 7.03 µM); MIC S. aureus ATCC 43300 (MRSA) [16]: 4 µg/mL (≈ 3.52 µM); Hemolysis (class) [17]: +; Hemolysis (d, diameter of hemolysis zone) [17]: 10 mm
3 | CCCCCCCC(=O)NC(C)(C)C(=O)NCC(=O)N[C@@H](CC(C)C)C(=O)NC(C)(C)C(=O)NCC(=O)N[C@@H](CCCCN)C(=O)N[C@@H](CC(C)C)C(=O)NC(C)(C)C(=O)NCC(=O)N[C@H](C(=O)N[C@H](CO)CC(C)C)[C@@H](C)CC [Peptide 10, 1-Oct-Aib-Gly-Leu-Aib-Gly-Lys-Leu-Aib-Gly-Ile-Lol] | > 128 | 16 (≈ 14.1 µM) | 4 (≈ 3.52 µM) | 16 (≈ 14.1 µM) | 4 (≈ 3.52 µM) | 64 (≈ 56.3 µM) | 16 (≈ 14.1 µM) | 16 (≈ 14.1 µM) | 8 (≈ 7.03 µM) | 16 (≈ 14.1 µM) | 4 (≈ 3.52 µM) | 32 (≈ 28.1 µM) | 32 μg/mL and 32/32 μg/mL | 16 (≈ 14.1 µM) | 16 μg/mL and 16/16 μg/mL | 16 (≈ 14.1 µM) | 16 μg/mL and 16/16 μg/mL | > 128 | > 128 | > 128 | MIC against A. baumannii, in molar units [1]: 1.8 to 7.2 µM; MBC Eco [4]: 128 µg/mL (≈ 113 µM); MBC Kpn [5]: 64 µg/mL (≈ 56.3 µM); MBC Pae [6]: 128 µg/mL (≈ 113 µM); MIC P. aeruginosa VR-143/97 (VIM-1) [15]: > 128 µg/mL; MBC S. aureus ATCC 43300 (MRSA) [16]: 8 µg/mL (≈ 7.03 µM); MIC S. aureus ATCC 43300 (MRSA) [16]: 4 µg/mL (≈ 3.52 µM); Hemolysis (class) [17]: +; Hemolysis (d, diameter of hemolysis zone) [17]: 11 mm
